The text below walks through data of patent EP0989131B1, “THIENOTRIAZOLODIAZEPINE COMPOUNDS AND MEDICINAL USES THEREOF” (priority 1996, dated 1998).

Like-named read-outs stand apart in the source and are kept apart here.

The subject of data set [1] is E-selectin expression in human umbilical vein-derived endothelial cells (HUVEC). The data set can be described thus: Inhibitory effect on TNF alpha-induced E-selectin expression in HUVEC (cell ELISA). It is filed as cell-based. The settings on record: for IC50: tumour necrosis factor α 100 U/ml, 5 hr. Here is the method: (§1) HUVEC was suspended in 199 medium containing 20% fetal calf serum, 20 µg/ml endothelial cell growth factor derived from bovine brain, and 100 µg/ml heparin, plated into 96-well microculture plates coated with collagen, and cultured at 37°C in 5% CO2. When cells grew to confluence, the cells received tumour necrosis factor α (20 U/ml for VCAM-1 expression induction, 100 U/ml for E-selectin expression induction) and the test compound, which was followed by further culture for 5 hr. The cells were washed once with 199 medium and mouse anti-human VCAM-1 monoclonal antibody (2 µg/ml) or rat anti-human E-selectin monocolnal antibody (2 µg/ml) was added. The cells were stood for 1 hr at room temperature. The cells were washed twice and peroxidase-conjugated anti-mouse immunoglobulin antibody or anti-rat immunoglobulin antibody was added. The cells were stood for 1 hr at room temperature. The cells were washed 3 times and 2,2'-azino-bis(3-ethylbenzothiazoline-6-sulfonic acid) as a peroxidase substrate was added. The plates were stood for 15 min at room temperature and absorbance at 405 n/490 nm was measured with a 96-well microplate reader, which was used as an indicator of VCAM-1 or E-selectin expression.

For data set [2], the system named is VCAM-1 expression in human umbilical vein-derived endothelial cells (HUVEC). Description: Inhibitory effect on TNF alpha-induced VCAM-1 expression in HUVEC (cell ELISA). It is filed as cell-based. The settings on record: for IC50: tumour necrosis factor α 20 U/ml, 5 hr. The method, then: as §1
In data set [3] the test system is CD11b expression of human histiocytic leukemia cell line U937. The data set can be described thus: Effect on CD11b expression of human histiocytic leukemia cell line U937 (cell ELISA). The settings on record: U937 cells; for IC50: PDB 10 ng/ml, cultured 3 days, read-out: Inhibitory effect on CD11b expression (IC50). Format: cell-based. Here is the method:
Effect on the expression of CD11b antigen, which constitutes the α chain of Mac-1, which is one of the adhesion molecules expressing on the surface of leukocytic cells, was investigated. U937 cells were suspended in RPMI1640 medium containing 20% fetal calf serum, plated with phorbol 12,13-dibutyrate (PDB, 10 ng/ml) and the test compound into 96-well filtration plates (30000 cells/well), and cultured for 3 days at 37°C in 5% CO2. After washing the cells once with RPMI1640 medium, rat anti-human CD11b monoclonal antibody (2 µg/ml) was added and the plates were stood for 1 hr under ice-cooling. The cells were washed twice and peroxidase-conjugated anti-rat immunoglobulin antibody (1 µg/ml) was added. The cells were stood for 1 hr under ice-cooling. The cells were washed 3 times and peroxidase substrate (o-phenylenediamine) for coloring was added. The plates were stood for 15 min at room temperature and absorbance at 490 nm was measured with a 96-well microplate reader, which was used as an indicator of CD 11b antigen expression.

The subject of data set [4] is trinitrobenzenesulfonic acid (TNBS)-induced colitis. Description: Effect on trinitrobenzenesulfonic acid (TNBS)-induced colitis in rat. Format: in vivo, SD rats. The settings on record: TNBS sensitized rats, 5 days. The method, then: Colitis was induced by intraintestinal injection of TNBS solution (60 mg/ml in 50% EtOH, 500 µl) to SD rats. Seven days later, rats were subjected to autopsy and large intestine (8 cm from anus) was cut out and weighed. Myeloperoxidase (MPO) activity in the intestinal tissue was measured and taken as an indicator of infiltrated leukocyte count. That is, the intestine was homogenized and a cycle of freeze-thawing of the tissue was repeated 3 times. The supernatant obtained by centrifugation was assayed for MPO activity using peroxidase substrate (o-phenylenediamine). MPO unit in the supernatant was calculated with the commercial MPO as a standard. The increase in intestinal weight and increase in MPO activity determined as above were taken as indicators of the degree of colitis. Test compound was suspended in 0.5% hydroxypropylmethylcellulose (Metolose)solution and administered p.o. ([…]) or intraintestinally (0.2 ml/rat) for 5 days beginning on the day of TNBS injection.

Data set [5] in a line: Toxicity test, repeated oral administration. It is filed as in vivo. The settings on record: female rats, repeated oral administration for 10 days, 300 mg/kg. The text has this:
Compound 2 was repeatedly administered orally to female rats for 10 days.

In data set [6] the test system is carrageenan-induced colitis. Description: Effect on carrageenan-induced colitis in rabbits. It is filed as in vivo. The settings on record: 10 mg/kg consecutively from day 0 for 8 weeks, autopsy day 56, control 10.9 ± 2.0, P<0.05 (Mann-Whitney's U-test). The method, then:
A mixed emulsion of 1% λ-degraded carrageenan and Freund's complete adjuvant was subcutaneously injected to rabbits for sensitization. Starting from the 7th day (day 0) from sensitization, λ-degraded carrageenan (250-1000 mg/day/rabbit) was forcibly administered orally for 8 weeks to induce colitis. The next day (day 56) of the termination of λ-degraded carrageenan intake, the rabbits were subjected to autopsy and disorder in large intestine was scored using abnormal observation of mucosal epithelium of the tissue sample, level of infiltration of inflammatory cells and the like as indices. The test compounds (10 mg/kg) were consecutively administered from day 0 for 8 weeks.

Consider “5-(2-chlorophenyl)-7-(morpholinocarbonylethyl)-10-methyl-3,4-dihydro-2H,7H-cyclopenta[4,5]thieno[3,2-f][1,2,4]triazolo[4,3-a][1,4]diazepine [Comparison Compound]”, for which the “E-selectin expression inhibitory effect relative to the activity of Compound 2” value in data set [1] (ratio to Compound 2) is “not more than 1/130”. For the same molecule, the IC50 in data set [1] is above 10 µM; in data set [2], above 10 µM; in data set [3], above 3000 nM. Also, the “VCAM-1 expression inhibitory effect relative to that of Compound 2” value in data set [2] (ratio to Compound 2) is listed as “not more than 1/90”. Further, the “activity relative to the activity of Compound 2 (CD11b expression)” value in data set [3] (ratio to Compound 2) is “not more than 1/100”.
On to `Cc1sc2c(c1C)C(c1ccc(Cl)cc1)=N[C@@H](CC(=O)Nc1ccc(O)cc1)c1nnc(C)n1-2` [Compound 1, (S)-2-[4-(4-chlorophenyl)-2,3,9-trimethyl-6H-thieno[3,2-f][1,2,4]triazolo[4,3-a][1,4]diazepin-6-yl]-N-(4-hydroxyphenyl)acetamide], for which the “Intestinal weight (mg, mean ± S.D.)” value is 501.5 ± 78.3 mg in data set [4] (Table 3A, intraintestinal, 0.01 mg/site, P<0.01 (Dunnett's test)); 472.0 ± 43.4 mg in data set [4] (Table 3A, intraintestinal, 0.1 mg/site, P<0.01 (Dunnett's test)); 460.8 ± 52.3 mg in data set [4] (Table 3A, intraintestinal, 1 mg/site, P<0.01 (Dunnett's test)). For the same molecule, the “MPO activity (U/ml, mean ± S.D.)” value is reported as 0.716±0.158 U/ml in data set [4] (Table 3B, intraintestinal, 0.01 mg/site, P<0.05 (Mann-Whitney's U-test)); 0.654±0.109 U/ml in data set [4] (Table 3B, intraintestinal, 0.1 mg/site, P<0.05 (Mann-Whitney's U-test)); 0.676±0.172 U/ml in data set [4] (Table 3B, intraintestinal, 1 mg/site, P<0.05 (Mann-Whitney's U-test)).
Take `Cc1sc2c(c1C)C(c1ccc(Cl)cc1)=N[C@@H](CC(=O)Nc1ccc(O)cc1)c1nnc(C)n1-2.O.O` [Compound 2, (S)-2-[4-(4-chlorophenyl)-2,3,9-trimethyl-6H-thieno[3,2-f][1,2,4]triazolo[4,3-a][1,4]diazepin-6-yl]-N-(4-hydroxyphenyl)acetamide dihydrate]: the “Intestinal weight (mg, mean ± S.D.)” value in data set [4] (Table 4A, intraintestinal, 0.01 mg/site, P<0.01 (Dunnett's test)) was 499.6 ± 71.7 mg; in data set [4] (Table 4A, intraintestinal, 0.1 mg/site, P<0.01 (Dunnett's test)) it was 502.0 ± 51.5 mg; in data set [4] (Table 4A, intraintestinal, 1 mg/site, P<0.05 (Dunnett's test)), 536.0 ± 62.2 mg; in data set [4] (Table 5A, oral, 0.03 mg/kg, significance none (Dunnett's test)), 699.3 ± 163.7 mg; in data set [4] (Table 5A, oral, 1 mg/kg, P<0.01 (Dunnett's test)), 468.5 ± 47.6 mg; in data set [4] (Table 5A, oral, 3 mg/kg, P<0.01 (Dunnett's test)) it was 458.0 ± 34.7 mg. Moreover, the “MPO activity (U/ml, mean ± S.D.)” value in data set [4] (Table 4B, intraintestinal, 0.01 mg/site, P<0.01 (Mann-Whitney's U-test)) turned out to be 0.354 ± 0.081 U/ml; in data set [4] (Table 4B, intraintestinal, 0.1 mg/site, P<0.01 (Mann-Whitney's U-test)), 0.334 ± 0.069 U/ml; in data set [4] (Table 4B, intraintestinal, 1 mg/site, P<0.01 (Mann-Whitney's U-test)), 0.345 ± 0.097 U/ml; in data set [4] (Table 5B, oral, 0.3 mg/kg, significance none (Mann-Whitney's U-test)) it was 1.568 ± 0.538 U/ml; in data set [4] (Table 5B, oral, 1 mg/kg, P<0.05 (Mann-Whitney's U-test)), 0.769 ± 0.222 U/ml; in data set [4] (Table 5B, oral, 3 mg/kg, P<0.05 (Mann-Whitney's U-test)), 0.740 ± 0.142 U/ml. Also, in data set [5], the death result is recorded as “No case of death was observed”. Further, the IC50 in data set [1] (Homo sapiens) was 0.073 µM; in data set [2] (Homo sapiens), 0.11 µM; in data set [3] (Homo sapiens, U-937, 72 h), below 30 nM. Besides, in data set [6], the “mean ± S.E. of score (disorder in large intestine)” value is listed as 5.3 ± 0.6.
